Test results: US20260103453A1, “NOVEL PYRIMIDINE DERIVATIVE AS BRUTON'S TYROSINE KINASE INHIBITOR” (HANMI PHARM. CO., LTD., priority 2022, published 2026)

Target: BTK enzyme (Homo sapiens, UniProt Q06187)
Assay: Z'-LYTE kinase assay, BTK enzyme activity inhibition (ThermoFisher SelectScreen)
Assay type: biochemical
Details: 60 minutes reaction at room temperature, compound 1,000 nM to 0.32 nM
Procedure: To do this, the SelectScreen profiling service was requested to the ThermoFisher company to proceed the Z′-LYTE kinase assay. The simple test method can be summarized as follows.
The compounds prepared in Examples above were each dissolved in DMSO to prepare a 10 mM solution, which was then delivered to the ThermoFisher Scientific company. According to the protocol provided by the ThermoFisher Scientific company, the solution of each compound was diluted in 100% DMSO to a have a concentration of 1,000 nM to 0.32 nM (dilution factor of 1/5). Next, the BTK enzyme was diluted in a kinase buffer (50 mM HEPES (PH 7.5), 10 mM MgCl2, 1 mM EGTA, 0.01% BRIJ-35) to a concentration of up to 10 ng/assay. The test was performed in a low volume 384-well plate (low volume NBS, black 384-well plate). First, 100 nL of the diluted compound solution was added to a sample, and then 2.4 μL of buffer, 5 μL of mixed solution of peptide substrate and kinase at twice (2×) the concentration listed in the protocol, and 2.5 μL of 140 μm ATP solution were added thereto, followed by stirring for 30 seconds. Then, it was allowed for a reaction at room temperature for 60 minutes. Afterwards, 5 μL of a color developing solution was added thereto and stirred for 30 seconds, and fluorescence of the peptide substrate was reacted for 60 minutes. After completion of the reaction, each fluorescence value (400 nm excitation filter, 445/520 nm emission filter) was measured by using a fluorescence plate reader.

Sequence of BTK enzyme (Q06187 whole entry): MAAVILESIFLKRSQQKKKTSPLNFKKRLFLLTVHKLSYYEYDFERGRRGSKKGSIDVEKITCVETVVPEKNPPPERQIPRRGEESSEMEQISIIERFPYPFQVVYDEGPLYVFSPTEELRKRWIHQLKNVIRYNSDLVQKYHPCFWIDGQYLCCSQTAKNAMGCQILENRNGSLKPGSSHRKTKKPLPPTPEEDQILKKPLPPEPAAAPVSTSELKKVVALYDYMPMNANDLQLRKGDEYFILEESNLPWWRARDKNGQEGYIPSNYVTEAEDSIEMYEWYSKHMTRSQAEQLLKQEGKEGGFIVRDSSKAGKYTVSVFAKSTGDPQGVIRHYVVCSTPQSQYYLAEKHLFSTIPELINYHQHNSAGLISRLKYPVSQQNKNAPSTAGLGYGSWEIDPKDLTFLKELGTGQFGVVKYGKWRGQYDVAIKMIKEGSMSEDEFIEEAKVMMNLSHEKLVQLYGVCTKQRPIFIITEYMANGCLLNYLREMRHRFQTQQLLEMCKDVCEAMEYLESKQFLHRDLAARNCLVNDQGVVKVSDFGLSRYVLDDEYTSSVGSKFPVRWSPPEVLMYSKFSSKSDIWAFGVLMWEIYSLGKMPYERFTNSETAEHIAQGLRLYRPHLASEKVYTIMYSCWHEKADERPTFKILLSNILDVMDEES

| Compound | IC50 [nM] |
| --- | --- |
| C=CC(=O)N(C)CC#Cc1c(N)ncnc1-c1cc(C)cc(-n2ccc3cc(C4CC4)cc(F)c3c2=O)c1C [Example 8, N-(3-(4-amino-6-(3-(6-cyclopropyl-8-fluoro-1-oxoisoquinolin-2(1H)-yl)-2,5-dimethylphenyl)pyrimidin-5-yl)prop-2-yn-1-yl)-N-methylacrylamide] | 3.4 |
| C=CC(=O)N(C)CC#Cc1c(N)ncnc1-c1cc(F)cc(-n2ncc3cc(C(C)(C)C)cc(F)c3c2=O)c1 [Example 10, N-(3-(4-amino-6-(3-(6-(tert-butyl)-8-fluoro-1-oxophthalazin-2-(1H)-yl)-5-fluorophenyl)pyrimidin-5-yl)prop-2-yn-1-yl)-N-methylacrylamide] | 2.3 |
| C=CC(=O)N(C)CC#Cc1c(N)ncnc1-c1cc(F)cc(-n2cnc3cc(C4CC4)cc(F)c3c2=O)c1 [Example 15, N-(3-(4-amino-6-(3-(7-cyclopropyl-5-fluoro-4-oxoquinazolin-3(4H)-yl)-5-fluorophenyl)pyrimidin-5-yl)prop-2-yn-1-yl)-N-methylacrylamide] | 34 |
| C=CC(=O)N1CCC[C@H]1C#Cc1c(N)ncnc1-c1cc(F)cc(-n2ccc3cc(C(C)C)cc(F)c3c2=O)c1C [Example 18, (S)-2-(3-(5-((1-acryloylpyrrolidin-2-yl)ethynyl)-6-aminopyrimidin-4-yl)-6-fluoro-2-methylphenyl)-8-fluoro-6-isoquinolin-1-(2H)-one] | 9.7 |
| C=CC(=O)N(C)CC#Cc1c(N)ncnc1-c1cc(F)cc(-n2ccc3cc(C4CC4)cc(F)c3c2=O)c1F [Example 7, N-(3-(4-amino-6-(3-(6-cyclopropyl-8-fluoro-1-oxoisoquinolin-2(1H)-yl)-2,5-difluorophenyl)pyrimidin-5-yl)prop-2-yn-1-yl)-N-methylacrylamide] | 20 |
| C=CC(=O)N1CCCC[C@H]1C#Cc1c(N)ncnc1-c1cc(F)cc(-n2ccc3cc(C4CC4)cc(F)c3c2=O)c1C [Example 23] | 8.7 |
| C=CC(=O)N1CCC[C@@H]1C#Cc1c(N)ncnc1-c1cc(F)cc(-n2ccc3cc(C4CC4)cc(F)c3c2=O)c1C [Example 16, (R)-2-(3-(5-((1-acryloylpyrrolidin-2-yl)ethynyl)-6-aminopyrimidin-4-yl)-5-fluoro-2-methylphenyl)-6-cyclopropyl-8-fluoroisoquinolin-1-(2H)-one] | 29 |
| C=CC(=O)NCC#Cc1c(N)ncnc1-c1cc(F)cc(-n2ccc3cc(C4CC4)cc(F)c3c2=O)c1C [Example 9, N-(3-(4-amino-6-(3-(6-cyclopropyl-8-fluoro-1-oxoisoquinolin-2(1H)-yl)-5-fluoro-2-methylphenyl)pyrimidin-5-yl)prop-2-yn-1-yl)acrylamide] | 34 |
| C=CC(=O)N(C)CC#Cc1c(N)ncnc1-c1cc(F)cc(N2CCc3cc(C4CC4)cc(F)c3C2=O)c1 [Example 3, N-(3-(4-amino-6-(3-(6-cyclopropyl-8-fluoro-1-oxo-3,4-dihydroisoquinolin-2(1H)-yl)-5-fluorophenyl)pyrimidin-5-yl)prop-2-yn-1-yl)-N-methylacrylamide] | 3.8 |
| C=CC(=O)N(C)CC#Cc1c(N)ncnc1-c1cc(F)cc(-n2ncc3cc(C4CC4)ccc3c2=O)c1C [Example 11, N-(3-(4-amino-6-(3-(6-cyclopropyl-1-oxophthalazin-2(1H)-yl)-5-fluoro-2-methylphenyl)pyrimidin-5-yl)prop-2-yn-1-yl)-N-methylacrylamide] | 10 |
| C=C(F)C(=O)N1CCC[C@H]1C#Cc1c(N)ncnc1-c1cc(F)cc(-n2ccc3cc(C4CC4)cc(F)c3c2=O)c1C [Example 19, (S)-2-(3-(6-amino-5-((1-(2-fluoroacryloyl)pyrrolidin-2-yl)ethynyl)pyrimidin-4-yl)-5-fluoro-2-methylphenyl)-6-cyclopropyl-8-fluoroisoquinolin-1(2H)-one] | 201 |
| C=CC(=O)N(C)CC#Cc1c(N)ncnc1-c1cc(F)cc(-n2ccc3cc(C4CC4)cc(F)c3c2=O)c1C [Example 6, N-(3-(4-amino-6-(3-(6-cyclopropyl-8-fluoro-1-oxoisoquinolin-2(1H)-yl)-5-fluoro-2-methylphenyl)pyrimidin-5-yl)prop-2-yn-1-yl)-N-methylacrylamide] | 3 |
| C=CC(=O)N(C)CC#Cc1c(N)ncnc1-c1cc(F)cc(-n2ncc3cc(C(C)(C)C)cc(F)c3c2=O)c1C [Example 13] | 44 |
| C=CC(=O)N1CCC[C@H]1C#Cc1c(N)ncnc1-c1cc(F)cc(-n2ccc3cc(C4CC4)cc(F)c3c2=O)c1C [Example 17, (S)-2-(3-(5-((1-acryloylpyrrolidin-2-yl)ethynyl)-6-aminopyrimidin-4-yl)-6-fluoro-2-methylphenyl)-6-cyclopropyl-8-fluoroisoquinolin-1-(2H)-one] | 4.1 |
| C=CC(=O)N(C)CC#Cc1c(N)ncnc1-c1cc(F)cc(-n2ccc3cc(C4CC4)cc(F)c3c2=O)c1 [Example 5, N-(3-(4-amino-6-(3-(6-cyclo-8-fluoro-1-oxoisoquinolin-2(1H)-yl)-5-fluorophenyl)pyrimidin-5-yl)prop-2-yn-1-yl)-N-methylacrylamide] | 6 |
| C=CC(=O)N(C)CC#Cc1c(N)ncnc1-c1cc(F)cc(N2CCc3cc(C4CC4)cc(F)c3C2=O)c1C [Example 4, N-(3-(4-amino-6-(3-(6-cyclopropyl-8-fluoro-1-oxo-3,4-dihydroisoquinolin-2(1H)-yl)-5-fluoro-2-methylphenyl)pyrimidin-5-yl)prop-2-yn-1-yl)-N-methylacrylamide] | 5.3 |
| C=CC(=O)N(C)CC#Cc1c(N)ncnc1-c1cc(F)cc(-n2ncc3cc(C(C)(C)C)ccc3c2=O)c1 [Example 14] | 24 |
| C=CC(=O)N1CCCCC1C#Cc1c(N)ncnc1-c1cc(F)cc(-n2ccc3cc(C4CC4)cc(F)c3c2=O)c1C (stereo not shown) [Example 22, 2-(3-(5-((1-acryloylpiperidin-2-yl)ethynyl)-6-aminopyrimidin-4-yl)-5-fluoro-2-methylphenyl)-6-cyclopropyl-8-isoquinolin-1(2H)-one] | 5.7 |
| C=CC(=O)N(C)CC#Cc1c(N)ncnc1-c1cc(F)cc(NC(=O)c2ccc(C3CC3)cc2F)c1C [Example 2] | 1.5 |
| C=CC(=O)N(C)CC#Cc1c(N)ncnc1-c1cc(F)cc(-n2ncc3cc(C4CC4)cc(F)c3c2=O)c1C [Example 12, N-(3-(4-amino-6-(3-(6-cyclopropyl-8-fluoro-1-oxophthalazin-2(1H)-yl)-5-fluoro-2-methylphenyl)pyrimidin-6-yl)prop-2-yn-1-yl)-N-methylacrylamide] | 4.9 |
| C=CC(=O)N(C)CC#Cc1c(N)ncnc1-c1cc(F)cc(NC(=O)c2ccc(C(C)C)cc2F)c1C [Example 1] | 1.7 |
| C=C(Cl)C(=O)N1CCC[C@H]1C#Cc1c(N)ncnc1-c1cc(F)cc(-n2ccc3cc(C4CC4)cc(F)c3c2=O)c1C [Example 20, (S)-2-(3-(6-amino-5-((1-(2-chloroacryloyl)pyrrolidin-2-yl)ethynyl)pyrimidin-4-yl)-5-fluoro-2-methylphenyl)-6-cyclopropyl-8-fluoroisoquinolin-1(2H)-one] | 16 |
